Test results published in the NIST ThermoML archive (doi:10.1016/j.jct.2015.02.011).

Test: refractive index (Na D-line) (dimensionless); xn = mol fraction of the nth substance listed
Conditions: 100.7 kPa, Liquid, Standard Abbe refractometry

CCCCCCCC[n+]1ccn(C)c1.F[P-](F)(F)(F)(F)F [1-octyl-3-methylimidazolium hexafluorophosphate] + C1CCOC1
refractive index
Conditions	x1 = 0.0767	x1 = 0.1791	x1 = 0.2783	x1 = 0.3996	x1 = 0.5198	x1 = 0.612	x1 = 0.6957	x1 = 0.7754	x1 = 0.8991	x1 = 1
293.15 K	1.41505	1.4205	1.42326	1.42412	1.42414	1.42411	1.42421	1.42432	1.42436	1.42441
298.15 K	1.41278	1.41848	1.42126	1.42242	1.42258	1.42272	1.42284	1.42306	1.42329	1.42312
303.15 K	1.41061	1.41646	1.41956	1.42076	1.42102	1.42123	1.42161	1.42189	1.42202	1.42171
308.15 K	1.40824	1.41452	1.41786	1.4191	1.41946	1.41974	1.42018	1.42042	1.42085	1.42029
313.15 K	1.40587	1.41284	1.41616	1.41744	1.4179	1.41825	1.41865	1.41915	1.41958	1.41888
318.15 K	1.4035	1.41116	1.41446	1.41578	1.41634	1.41676	1.41712	1.41788	1.41831	1.4175
323.15 K	1.40113	1.40948	1.41276	1.41412	1.41478	1.41527	1.41559	1.41661	1.41704	1.41601

CCCCn1cc[n+](C)c1.F[P-](F)(F)(F)(F)F [1-butyl-3-methylimidazolium hexafluorophosphate] + C1CCOC1
refractive index
Conditions	x1 = 0.0871	x1 = 0.1801	x1 = 0.2893	x1 = 0.3939	x1 = 0.4994	x1 = 0.5709	x1 = 0.7163	x1 = 0.8069	x1 = 0.9012	x1 = 1
293.15 K	1.41126	1.41369	1.41462	1.41441	1.41373	1.41332	1.41236	1.41205	1.41131	1.41068
298.15 K	1.40906	1.41157	1.41279	1.41273	1.41208	1.4117	1.41089	1.41059	1.41014	1.40943
303.15 K	1.40701	1.40957	1.41105	1.41113	1.41065	1.41025	1.40964	1.40935	1.40895	1.40818
308.15 K	1.40475	1.40747	1.40915	1.40938	1.4092	1.40877	1.40818	1.40793	1.40778	1.40693
313.15 K	1.40262	1.40554	1.40754	1.40784	1.40779	1.40748	1.40693	1.40681	1.40666	1.40567
318.15 K	1.40012	1.40345	1.40558	1.40611	1.40619	1.40595	1.40552	1.40541	1.40525	1.40443
323.15 K	1.39781	1.40139	1.40377	1.40455	1.40451	1.40452	1.40428	1.40425	1.40393	1.40312

CCCCCCn1cc[n+](C)c1.F[P-](F)(F)(F)(F)F [1-hexyl-3-methylimidazolium hexafluorophosphate] + C1CCOC1
refractive index
Conditions	x1 = 0.1036	x1 = 0.2002	x1 = 0.2868	x1 = 0.4134	x1 = 0.5222	x1 = 0.6239	x1 = 0.6951	x1 = 0.7978	x1 = 0.8953	x1 = 1
293.15 K	1.416	1.41971	1.42081	1.42058	1.41962	1.41895	1.41874	1.41868	1.41858	1.41958
298.15 K	1.41392	1.41772	1.41878	1.41884	1.41828	1.41755	1.41759	1.41752	1.41756	1.41832
303.15 K	1.41184	1.41573	1.41707	1.4171	1.41694	1.41615	1.41644	1.41636	1.41654	1.41692
308.15 K	1.40966	1.41374	1.41536	1.41556	1.41536	1.41475	1.41509	1.41512	1.41552	1.41564
313.15 K	1.40748	1.41175	1.41365	1.41402	1.41378	1.41335	1.41374	1.41388	1.4145	1.41422
318.15 K	1.4053	1.40976	1.41194	1.41248	1.4122	1.41195	1.41239	1.41264	1.41348	1.41306
323.15 K	1.40312	1.40777	1.41023	1.41094	1.41062	1.41055	1.41104	1.4114	1.41246	1.41175
